Results published in patent US8247211B2, “Glycopeptide antibiotics” (American Cyanamid Company, priority 2001, dated 2012).

How the values were obtained:
Test in all cases: In vitro antibacterial evaluation: minimum inhibitory concentration (MIC), broth dilution method
Assay type in all cases: cell-based
Enterococcus sp. = conditions: 18 hours at 35° C.
How it was run: (§1)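 Broth dilution per NCCLS M7-A2 in Muller-Hinton II […], inoculum 5×10^5 CFU/mL, antibiotic tested over 64-0.06 μg/mL. MIC is taken as the lowest concentration that inhibits growth. Panel includes recent clinical isolates resistant to methicillin, penicillin and/or vancomycin.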

Streptococcus sp. = conditions: 18 hours at 35° C.
How it was run: as §1

Escherichia coli = Escherichia coli (GC 4560); 18 hours at 35° C.
How it was run: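 Susceptibility determined by NCCLS-recommended broth dilution (M7-A2), Muller-Hinton II […]. Concentration span 64-0.06 μg/mL, inoculum 5×10^5 CFU/mL. Isolates include strains resistant to methicillin, penicillin and/or vancomycin.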

Staphylococcus sp. = system: Staphylococcus sp.
How it was run: as §1

[1] = broth dilution, inoculum 5×10^5 CFU/mL

CC(c1ccccc1)C1NC(=O)CNC(=O)C(CO)NC(=O)C(C(O)C2CN(c3nc4ccccc4o3)C(=N)N2C2OC(CO)C(O)C(O)C2O)NC(=O)C(C(O)C2CNC(=Nc3nc4ccccc4o3)N2)NC(=O)C(Cc2ccc(OC3OC(CO)C(OC4OC5COC6(OC5C(O)C4O)C4CC5CC(C4)CC6C5)C(O)C3O)cc2)NC1=O (stereo not drawn) [Example 227, Di-N-(2-(1,3-benzoxazolyl)-cyclo[glycyl-β-methylphenylalanyl-O-[4-O-[4,6-O-(2-adamantylidene)hexopyranosyl]hexopyranosyl]tyrosyl-3-[2-iminoimidazolidin-4-yl]seryl-3-β-hexopyranosyl-2-iminoimidazolidin-4-yl]serylseryl]]
4 µg/mL: MIC Coagulase Negative Staphylococcus (GC 4548) (Staphylococcus sp.; strain GC 4548)
32 µg/mL: MIC Enterococcus faecium (GC 2243) (Enterococcus sp.; Enterococcus faecium (GC 2243)) | MIC Enterococcus faecium (GC 2243) (Enterococcus sp.; [1]) | MIC Streptococcus pneumoniae (ATCC 6301) (Streptococcus sp.; Streptococcus pneumoniae (ATCC 6301)) | MIC Streptococcus pneumoniae (GC 1894) (Streptococcus sp.; Streptococcus pneumoniae (GC 1894)) | MIC Streptococcus pyogenes (GC 4563) (Streptococcus sp.; Streptococcus pyogenes (GC 4563)) | MIC Streptococcus pneumoniae (ATCC 6301) (Streptococcus sp.; [1]) | MIC Streptococcus pneumoniae (GC 1894) (Streptococcus sp.; [1]) | MIC Streptococcus pyogenes (GC 4563) (Streptococcus sp.; [1]) | MIC Coagulase Negative Staphylococcus (GC 4547) (Staphylococcus sp.; strain GC 4547) | MIC Coagulase Negative Staphylococcus (GC 4549) (Staphylococcus sp.; strain GC 4549)
8 µg/mL: MIC Enterococcus avium (GC 4558) (Enterococcus sp.; Enterococcus avium (GC 4558)) | MIC Enterococcus faecalis (GC 4553) (Enterococcus sp.; Enterococcus faecalis (GC 4553)) | MIC Enterococcus faecium (GC 4557) (Enterococcus sp.; Enterococcus faecium (GC 4557)) | MIC Enterococcus avium (GC 4558) (Enterococcus sp.; [1]) | MIC Enterococcus faecalis (GC 4553) (Enterococcus sp.; [1]) | MIC Enterococcus faecium (GC 4557) (Enterococcus sp.; [1]) | MIC Escherichia coli (GC 4560) (Escherichia coli) | MIC Coagulase Negative Staphylococcus (GC 4551) (Staphylococcus sp.; strain GC 4551)
64 µg/mL: MIC Enterococcus faecalis (ATCC 29212) (Enterococcus sp.; Enterococcus faecalis (ATCC 29212)) | MIC Enterococcus faecalis (GC 2242) (Enterococcus sp.; Enterococcus faecalis (GC 2242)) | MIC Enterococcus faecalis (GC 2691) (Enterococcus sp.; Enterococcus faecalis (GC 2691)) | MIC Enterococcus faecalis (GC 4552) (Enterococcus sp.; Enterococcus faecalis (GC 4552)) | MIC Enterococcus faecalis (GC 6189) (Enterococcus sp.; Enterococcus faecalis (GC 6189)) | MIC Enterococcus faecium (GC 4556) (Enterococcus sp.; Enterococcus faecium (GC 4556)) | MIC Enterococcus faecalis (ATCC 29212) (Enterococcus sp.; [1]) | MIC Enterococcus faecalis (GC 2242) (Enterococcus sp.; [1]) | MIC Enterococcus faecalis (GC 2691) (Enterococcus sp.; [1]) | MIC Enterococcus faecalis (GC 4552) (Enterococcus sp.; [1]) | MIC Enterococcus faecalis (GC 6189) (Enterococcus sp.; [1]) | MIC Enterococcus faecium (GC 4556) (Enterococcus sp.; [1]) | MIC Streptococcus agalactiae (GC 4564) (Streptococcus sp.; Streptococcus agalactiae (GC 4564)) | MIC Streptococcus pneumoniae (GC 4565) (Streptococcus sp.; Streptococcus pneumoniae (GC 4565)) | MIC Streptococcus agalactiae (GC 4564) (Streptococcus sp.; [1]) | MIC Streptococcus pneumoniae (GC 4565) (Streptococcus sp.; [1]) | MIC Staphylococcus haemolyticus (GC 4546) (Staphylococcus sp.; strain GC 4546)
